Measured values from EP0365837B1 (DANA FARBER CANCER INSTITUTE, priority 1988, dated 1990).
Values joined by “and” are separate entries in the source; they are usually repeats but may differ in a detail not shown here. Identical values can stand only once. Like-named read-outs stand apart in the source and are kept apart here. *1 amine or outer side, *2 acyl side, *3 side chain or, on linkers, in order; H or OH if unused. Where a SMILES comes first, the peptide text is derived from it. Bridges are numbered along the chain shown (N, C = ends). Roman numbers before positions name the chains, in order. [ ]: non-standard residue; d: D form. Actinocin(9to1) = Cc1c2oc3c(C)ccc(C(=O)[*:1])c3nc-2c(C(=O)[*:2])c(N)c1=O; NMeV = CN[C@H](C(=O)O)C(C)C; Sar = CNCC(=O)O

Legend:
[1] = system: human umbilical vein endothelial cells (HUVEC); assay: Radioimmune assay of ICAM-1 expression (¹²⁵I RR1/1 binding) on HUVEC; type: cell-based
Method: In order to measure ICAM-1 expression, a radioimmune assay was developed. In this assay, purified RR1/1 was iodinated using iodogen to a specific activity of 10 »Ci/»g. Endothelial cells were grown in 96 well plates and treated as described for each experiment. The plates were cooled at 4°C by placing in a cold room for 0.5-1 hr, not immediately on ice. The monolayers were washed 3x with cold complete media and then incubated 30 m at 4°C with ¹²⁵I RR1/1. The monolayers were then washed 3x with complete media. The bound ¹²⁵I was released using 0.1 N NaOH and counted. The specific activity of the ¹²⁵I RR1/1 was adjusted using unlabeled RR1/1 to obtain a linear signal over the range of antigen densities encountered in this study. Non-specific binding was determined in the presence of a thousand fold excess of unlabeled RR1/1 and was subtracted from total binding to yield the specific binding.

human dermal fibroblasts = type: cell-based
Method: The kinetics of interleukin 1 and gamma interferon effects on ICAM-1 expression on dermal fibroblasts were determined using the ¹²⁵I goat anti-mouse IgG binding assay of Dustin, M.L. et al. (J. Immunol. 137:245-254 (1986); which reference is herein incorporated by reference). To perform this binding assay, human dermal fibroblasts were grown in a 96-well microtiter plate to a density of 2-8 x 10⁴ cells/well (0.32 cm²). The cells were washed twice with RPMI 1640 medium supplemented as described in Example 1. The cells were additionally washed once with Hanks Balanced Salt Solution (HBSS), 10 mM HEPES, 0.05% NaN₃ and 10% heat-inactivated fetal bovine serum. Washing with this binding buffer was done at 4°C. To each well was added 50 »l of the above-described binding buffer and 50 »l of the appropriate hybridoma supernatant with X63 and W6/32 as the negative and positive controls, respectively. After incubation for 30 minutes at 4°C, with gentle agitation, the wells were washed twice with binding buffer, and the second antibody ¹²⁵I-goat anti-mouse IgG, was added at 50 nCi in 100 »l. The ¹²⁵I-goat anti-mouse antibody was prepared by using Iodogen (Pierce) according to the method of Fraker, P.J. et al. (Biochem. Biophys. Res. Commun. 80:849 (1978)). After 30 minutes at 4°C, the wells were washed twice with 200 »l of binding buffer and the cell layer was solubilized by adding 100 »l of 0.1 N NaOH. This and a 100 »l wash were counted in a Beckman 5500 gamma counter. The specific counts per minute bound was calculated as [cpm with monoclonal antibody]-[cpm with X63]. All steps, including induction with specific reagents, were carried out in quadruplicate.

[2] = system: Peripheral blood mononuclear cells (PBMC); conditions: Table 19, R x S; R6-5-D6 8 ng/ml, Azathioprine 1 ng/ml; no inhibitor 49,570
[3] = system: Peripheral blood mononuclear cells (PBMC); assay: cells; conditions: Homo sapiens
ICAM-1-LFA-1 adhesion = ICAM-1-LFA-1 adhesion (Homo sapiens, UniProt P05107+P20701); conditions: Marlin, S.D., et al., cell 51:813-819 (1987); cited from earlier work
JY cells = assay: LFA-1 dependent aggregation of JY cells (qualitative and quantitative aggregation assays); type: cell-based; conditions: 50 ng/ml of PMA; quantitative assay, 200 rpm, 2 hours; SD = 8%, N = 6
Method: In order to assess the extent of cellular adhesion, aggregation assays were employed. Cell lines used in such assays were washed two times with RPMI 1640 medium containing 5 mM Hepes buffer (Sigma Chemical Co., St. Louis) and resuspended to a concentration of 2 x 10⁶ cells/ml. Added to flat-bottomed, 96-well microtiter plates (No. 3596; Costar, Cambridge, MA) were 50 »l of appropriate monoclonal antibody supernatant or 50 »l of complete medium with or without purified monoclonal antibodies, 50 »l of complete medium containing 200 ng/ml of the phorbol ester phorbol myristate acetate (PMA) and 100 »l of cells at a concentration of 2 x 10⁶ cells/ml in complete medium. This yielded a final concentration of 50 ng/ml PMA and 2 x 10⁵ cells/well. Cells were allowed to settle spontaneously, and the degree of aggregation was scored at various time points. […] In order to obtain a more quantitative estimate of cellular adhesion, reagents and cells were added to 5 ml polystyrene tubes in the same order as above. Tubes were placed in a rack on a gyratory shaker at 37°C. […] Percent aggregation was determined by the following equation: [formula] […]
As a second means of measuring adhesion, the quantitative assay described in Example 2 was used. […]

[4] = IL 1 (10 U/ml) (4 hr), alone or + cycloheximide 20 »g/ml, actinomycin D 10 »M, tunicamycin 2 »g/ml, mean ± SD
[5] = no cytokine, Control (4 hr) 1524 ± 140, cycloheximide 20 »g/ml, actinomycin D 10 »M, tunicamycin 2 »g/ml, mean ± SD
[6] = no cytokine, Control (4 hr) 11928 ± 600, cycloheximide 20 »g/ml, actinomycin D 10 »M, tunicamycin 2 »g/ml, mean ± SD
[7] = IFN-γ (10 U/ml) (18 hr), alone or + cycloheximide 20 »g/ml, actinomycin D 10 »M, mean ± SD

Sequence of ICAM-1-LFA-1 adhesion (P20701 26-1170): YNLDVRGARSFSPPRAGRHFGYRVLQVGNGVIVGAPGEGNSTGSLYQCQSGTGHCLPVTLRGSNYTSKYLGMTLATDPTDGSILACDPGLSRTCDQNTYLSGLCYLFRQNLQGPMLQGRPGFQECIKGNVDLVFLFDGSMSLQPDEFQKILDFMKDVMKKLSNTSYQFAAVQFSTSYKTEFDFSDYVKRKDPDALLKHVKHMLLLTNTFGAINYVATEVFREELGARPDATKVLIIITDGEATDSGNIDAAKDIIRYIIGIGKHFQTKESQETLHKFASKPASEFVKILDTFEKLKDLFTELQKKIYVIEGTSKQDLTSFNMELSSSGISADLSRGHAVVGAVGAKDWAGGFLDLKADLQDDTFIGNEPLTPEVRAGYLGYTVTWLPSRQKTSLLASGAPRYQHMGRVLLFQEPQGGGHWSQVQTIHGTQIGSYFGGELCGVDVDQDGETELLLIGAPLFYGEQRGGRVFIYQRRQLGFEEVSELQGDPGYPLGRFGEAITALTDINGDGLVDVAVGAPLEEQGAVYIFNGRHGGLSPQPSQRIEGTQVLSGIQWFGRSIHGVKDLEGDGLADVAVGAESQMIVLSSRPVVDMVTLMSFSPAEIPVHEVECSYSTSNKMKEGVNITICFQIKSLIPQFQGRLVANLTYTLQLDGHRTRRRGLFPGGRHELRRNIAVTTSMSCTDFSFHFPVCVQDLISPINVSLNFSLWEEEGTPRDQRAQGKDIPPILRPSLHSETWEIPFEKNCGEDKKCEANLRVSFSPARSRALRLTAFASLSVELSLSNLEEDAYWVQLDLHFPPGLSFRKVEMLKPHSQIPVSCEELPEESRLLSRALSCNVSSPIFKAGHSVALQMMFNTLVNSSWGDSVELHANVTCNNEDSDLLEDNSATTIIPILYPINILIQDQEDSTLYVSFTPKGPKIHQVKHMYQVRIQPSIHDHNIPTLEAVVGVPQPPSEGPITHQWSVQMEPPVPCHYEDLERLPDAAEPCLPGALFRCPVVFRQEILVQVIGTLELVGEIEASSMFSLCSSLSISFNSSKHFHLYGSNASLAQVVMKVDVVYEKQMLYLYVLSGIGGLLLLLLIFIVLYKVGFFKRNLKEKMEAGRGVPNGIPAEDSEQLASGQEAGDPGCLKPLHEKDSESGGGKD
Sequence of ICAM-1-LFA-1 adhesion (P05107 23-769): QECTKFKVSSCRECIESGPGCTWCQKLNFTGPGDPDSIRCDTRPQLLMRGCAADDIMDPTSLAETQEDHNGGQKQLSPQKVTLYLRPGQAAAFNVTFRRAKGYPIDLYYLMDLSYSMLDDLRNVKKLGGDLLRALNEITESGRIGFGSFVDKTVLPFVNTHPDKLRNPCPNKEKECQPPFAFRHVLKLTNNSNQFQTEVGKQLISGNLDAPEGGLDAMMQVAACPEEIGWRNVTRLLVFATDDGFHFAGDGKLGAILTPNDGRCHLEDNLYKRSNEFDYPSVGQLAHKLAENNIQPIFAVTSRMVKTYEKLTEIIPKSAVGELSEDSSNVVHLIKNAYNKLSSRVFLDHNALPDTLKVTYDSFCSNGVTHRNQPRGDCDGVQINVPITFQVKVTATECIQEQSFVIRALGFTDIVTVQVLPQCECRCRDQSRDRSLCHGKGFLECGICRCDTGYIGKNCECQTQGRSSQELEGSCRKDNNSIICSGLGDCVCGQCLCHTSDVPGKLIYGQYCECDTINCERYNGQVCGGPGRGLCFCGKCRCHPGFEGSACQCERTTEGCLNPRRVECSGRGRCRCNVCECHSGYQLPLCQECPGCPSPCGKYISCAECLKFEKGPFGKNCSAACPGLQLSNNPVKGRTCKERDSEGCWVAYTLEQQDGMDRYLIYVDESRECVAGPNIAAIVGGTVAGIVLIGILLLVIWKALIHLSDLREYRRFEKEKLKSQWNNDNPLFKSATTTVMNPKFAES

polymyxin B
¹²⁵I Specifically bound (CPM) ([1]; HUVEC, 16 hr, 100 ng/ml rIL-1 beta, 50 ng/ml rIL-1 alpha, 50 ng/ml rTNF alpha, 10 »g/ml LPS, 10 ng/ml rIFN gamma, polymyxin B 10 »g/ml, control 603 ± 11): 480 ± 23 CPM
decreased ICAM-1 expression (basal) ([1]; polymyxin B at 10 »g/ml, cells in low endotoxin serum, additional decrease): 25%

C[C@@H]1C[C@@H]([C@H](O)CC2CC(=O)NC(=O)C2)C(=O)[C@@H](C)C1 [cycloheximide]
¹²⁵I Goat Anti-Mouse IgG Specifically Bound (cpm) anti-HLA-A,B,C (human dermal fibroblasts): 10675 ± 800 cpm and 10678 ± 471 cpm and 12676 ± 446 cpm
¹²⁵I Goat Anti-Mouse IgG Specifically Bound (cpm) anti-ICAM-1 (human dermal fibroblasts): 1461 ± 59 cpm and 1513 ± 210 cpm and 1619 ± 381 cpm

Cn1cnc([N+](=O)[O-])c1Sc1ncnc2nc[nH]c12 [Azathioprine]
³HT Incorporation (CPM) [2]: 42,710 CPM
inhibition at 0.001 µg/mL [3]: 14%

tunicamycin
¹²⁵I Goat Anti-Mouse IgG Specifically Bound (cpm) anti-HLA-A,B,C (human dermal fibroblasts; [4]): 13434 ± 661 cpm
¹²⁵I Goat Anti-Mouse IgG Specifically Bound (cpm) anti-ICAM-1 (human dermal fibroblasts; [4]): 3084 ± 113 cpm
inhibited the interleukin 1 effect on ICAM-1 expression (human dermal fibroblasts; fibroblasts, tunicamycin 2 »g/ml): 43%
¹²⁵I Goat Anti-Mouse IgG Specifically Bound (cpm) anti-ICAM-1 (human dermal fibroblasts; [5]): 1461 ± 176 cpm
¹²⁵I Goat Anti-Mouse IgG Specifically Bound (cpm) anti-HLA-A,B,C (human dermal fibroblasts; [6]): 12340 ± 940 cpm

GRGESP
inhibit ICAM-1-LFA-1 adhesion (ICAM-1-LFA-1 adhesion): failure

Cc1c2oc3c(C)ccc(C(=O)N[C@@H]4C(=O)N[C@H](C(C)C)C(=O)N5CCC[C@H]5C(=O)N(C)CC(=O)N(C)[C@@H](C(C)C)C(=O)O[C@@H]4C)c3nc-2c(C(=O)N[C@@H]2C(=O)N[C@H](C(C)C)C(=O)N3CCC[C@H]3C(=O)N(C)CC(=O)N(C)[C@@H](C(C)C)C(=O)O[C@@H]2C)c(N)c1=O [actinomycin D] (I: T[dV]P[Sar][NMeV] / II: T[dV]P[Sar][NMeV]; ester I:1-I:C, II:1-II:C; linker I:N-II:N via Actinocin(9to1))
¹²⁵I Goat Anti-Mouse IgG Specifically Bound (cpm) anti-HLA-A,B,C (human dermal fibroblasts; [7]): 12089 ± 550 cpm
¹²⁵I Goat Anti-Mouse IgG Specifically Bound (cpm) anti-ICAM-1 (human dermal fibroblasts; [7]): 1326 ± 186 cpm
¹²⁵I Goat Anti-Mouse IgG Specifically Bound (cpm) anti-HLA-A,B,C (human dermal fibroblasts; [4]): 12294 ± 123 cpm
¹²⁵I Goat Anti-Mouse IgG Specifically Bound (cpm) anti-ICAM-1 (human dermal fibroblasts; [4]): 1613 ± 88 cpm
effects of both interleukin 1 and gamma interferon on ICAM-1 expression on fibroblasts (human dermal fibroblasts; cycloheximide 20 »g/ml, actinomycin D 10 »M): abolish
¹²⁵I Goat Anti-Mouse IgG Specifically Bound (cpm) anti-ICAM-1 (human dermal fibroblasts; [5]): 1590 ± 46 cpm
¹²⁵I Goat Anti-Mouse IgG Specifically Bound (cpm) anti-HLA-A,B,C (human dermal fibroblasts; [6]): 12276 ± 608 cpm

CCCCCCCCCCCCCC(=O)O[C@@H]1[C@@H](C)[C@@]2(O)[C@@H](C=C(CO)C[C@]3(O)C(=O)C(C)=C[C@@H]23)[C@@H]2C(C)(C)[C@]12OC(C)=O [PMA, phorbol myristate acetate]
JY cells in aggregates (JY cells): 87%

GRGDSP
inhibit ICAM-1-LFA-1 adhesion (ICAM-1-LFA-1 adhesion): failure
